The assay addresses T1, IRAK4 (Homo sapiens, UniProt Q9NWZ3).
T1 construct: endogenous in cells; host or cells: Karpas299
T1 sequence (Q9NWZ3 1-460): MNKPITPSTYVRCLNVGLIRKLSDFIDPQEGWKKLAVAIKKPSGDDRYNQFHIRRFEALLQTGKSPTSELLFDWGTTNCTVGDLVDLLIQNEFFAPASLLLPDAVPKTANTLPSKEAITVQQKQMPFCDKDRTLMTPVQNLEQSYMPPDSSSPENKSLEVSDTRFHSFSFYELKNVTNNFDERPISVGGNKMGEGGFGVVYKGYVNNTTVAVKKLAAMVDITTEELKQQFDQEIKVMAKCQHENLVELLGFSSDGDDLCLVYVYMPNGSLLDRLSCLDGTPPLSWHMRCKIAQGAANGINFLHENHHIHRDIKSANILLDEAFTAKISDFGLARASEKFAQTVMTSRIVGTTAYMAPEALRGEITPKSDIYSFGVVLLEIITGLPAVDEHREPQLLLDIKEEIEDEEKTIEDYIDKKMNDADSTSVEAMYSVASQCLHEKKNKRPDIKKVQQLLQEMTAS
In words: IRAK4 Degradation Assay (Karpas299, HTRF/TR-FRET). The assay is classed as cell-based. In outline: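 Karpas299 cells at 0.2 million per well were exposed to serially diluted compounds for 24 h or 5 h, then lysed. IRAK4 remaining in lysates was quantified by HTRF (665/620 nm) after overnight antibody incubation at room temperature. Percent degradation was fitted to a four-parameter curve to give IC50 (DC50).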
A general note: Time-resolved FRET reads energy transfer from a long-lived donor to a nearby acceptor.

[1] abbreviates: Karpas-299 cells, 5 h treatment, maximum percentage of degradation, read-out: IRAK4 in Karpas-299 (5 h) Dmax (%).
Where [2] appears, read: Karpas-299 cells, 5 h treatment, read-out: IRAK4 in Karpas-299 (5 h) DC50.
Where [3] appears, read: Karpas-299 cells, 24 h treatment, maximum percentage of degradation, read-out: IRAK4 in Karpas-299 (24 h) Dmax (%).
The mark [4] stands for this setting: Karpas-299 cells, 24 h treatment, read-out: IRAK4 in Karpas-299 (24 h) DC50.
Setting [5] is: Degradation (Karpas-299), comparison table, Linker Type A, read-out: Compound (Linker Type A) DC50.
Where [6] appears, read: Degradation (Karpas-299), comparison table, Linker Type A, read-out: Compound (Linker Type A) Dmax (%).

Like-named read-outs stand apart in the source and are kept apart here.

Usually Dmax stands for the greatest extent of degradation seen. Broadly, the DC50 is the concentration at which degradation of the target reaches its halfway point. In the case of `COc1cc2nn(C3CCN(C4CCN(C(=O)C5CN(c6cc(F)c([C@H]7CCC(=O)NC7=O)c(F)c6)C5)CC4)CC3)cc2cc1NC(=O)c1cccc(C(F)(F)F)n1` [Example 45, (R)—N-(2-(1′-(1-(4-(2,6-dioxopiperidin-3-yl)-3,5-difluorophenyl)azetidine-3-carbonyl)-[1,4′-bipiperidin]-4-yl)-6-methoxy-2H-indazol-5-yl)-6-(trifluoromethyl)picolinamide], the Dmax under setting [1] turned out to be 88% and the Dmax under setting [3] was 98%. The DC50 is, setting by setting: under setting [2], 16 nM; under setting [4], 6.3 nM.
For `CC(C)(O)c1cc2nn(C3CCN(C4CCN(C(=O)C5CN(c6cc(F)c([C@H]7CCC(=O)NC7=O)c(F)c6)C5)CC4)CC3)cc2cc1NC(=O)c1cccc(C(F)(F)F)n1` [Example 160, (R)—N-(2-(1′-(1-(4-(2,6-dioxopiperidin-3-yl)-3,5-difluorophenyl)azetidine-3-carbonyl)-[1,4′-bipiperidin]-4-yl)-6-(2-hydroxypropan-2-yl)-2H-indazol-5-yl)-6-(trifluoromethyl)picolinamide], in that order: 90%, 99%, 4 nM and 0.4 nM.
Regarding `O=C1CC[C@H](c2c(F)cc(N3CC(C(=O)N4CCN([C@H]5CC[C@H](n6cc7cc(NC(=O)c8cccc(C(F)(F)F)n8)c(OC8COC8)nc7n6)CC5)CC4)C3)cc2F)C(=O)N1` [Example 98, N-(2-((1r,4r)-4-(4-(1-(4-((R)-2,6-dioxopiperidin-3-yl)-3,5-difluorophenyl)azetidine-3-carbonyl)piperazin-1-yl)cyclohexyl)-6-(oxetan-3-yloxy)-2H-pyrazolo[3,4-b]pyridin-5-yl)-6-(trifluoromethyl)picolinamide], under setting [3], the Dmax stood at 99%. Further, under setting [4], the DC50 turned out to be 0.6 nM.
In the same order, the values of `O=C1CCN(c2ccc(N3CCC(N4CCN([C@H]5CC[C@H](n6cc(NC(=O)c7coc(-c8ccnc(NCC(F)(F)F)c8)n7)c(C(F)F)n6)CC5)CC4)C3)cc2)C(=O)N1` (stereo partly drawn) [Example 21, N-(3-(difluoromethyl)-1-((1r,4r)-4-(4-(1-(4-(2,4-dioxotetrahydropyrimidin-1(2H)-yl)phenyl)pyrrolidin-3-yl)piperazin-1-yl)cyclohexyl)-1H-pyrazol-4-yl)-2-(2-((2,2,2-trifluoroethyl)amino)pyridin-4-yl)oxazole-4-carboxamide] are 98% and 4.4 nM.
Turning to `CC(C)(O)c1cc2nc(C3CCN(C4CCN(C(=O)[C@@H]5CCN(c6cc(F)c([C@H]7CCC(=O)NC7=O)c(F)c6)C5)CC4)CC3)cn2cc1NC(=O)c1cccc(C(F)(F)F)n1` [Example 127, N-(2-(1′-((R)-1-(4-((R)-2,6-dioxopiperidin-3-yl)-3,5-difluorophenyl)pyrrolidine-3-carbonyl)-[1,4′-bipiperidin]-4-yl)-7-(2-hydroxypropan-2-yl)imidazo[1,2-a]pyridin-6-yl)-6-(trifluoromethyl)picolinamide], the Dmax worked out at 94% under setting [1] and 102% under setting [3]. Further, the 50% degradation concentration (DC50) under setting [2] is 12 nM and the DC50 under setting [4] worked out at 1.3 nM.
With `CC(C)(O)c1cc2nn([C@H]3CC[C@H](N4CCN([C@H]5CCN(c6ccc(N7CCC(=O)NC7=O)cc6)C5)CC4)CC3)cc2cc1NC(=O)c1ccc2cc(C#N)cnn12` [Example 295, 3-cyano-N-(2-((1S,4r)-4-(4-((S)-1-(4-(2,4-dioxotetrahydropyrimidin-1(2H)-yl)phenyl)pyrrolidin-3-yl)piperazin-1-yl)cyclohexyl)-6-(2-hydroxypropan-2-yl)-2H-indazol-5-yl)pyrrolo[1,2-b]pyridazine-7-carboxamide], under setting [3], the Dmax was found to be 87%. Besides, the DC50 under setting [4] was 16 nM.
In the same order, the values of `CC(C)(O)c1cc2nn(C3CCN(C4CCN(C(=O)[C@@H]5CCN(c6cc(F)c([C@H]7CCC(=O)NC7=O)c(F)c6)C5)CC4)CC3)cc2cc1NC(=O)c1cccn(C2CC2)c1=O` [Example 118, 1-cyclopropyl-N-(2-(1′-((R)-1-(4-((R)-2,6-dioxopiperidin-3-yl)-3,5-difluorophenyl)pyrrolidine-3-carbonyl)-[1,4′-bipiperidin]-4-yl)-6-(2-hydroxypropan-2-yl)-2H-indazol-5-yl)-2-oxo-1,2-dihydropyridine-3-carboxamide] are 85% and 2.8 nM.
In the same order, the values of `CCC(C)c1cc(-c2nc(C(=O)Nc3cn([C@H]4CC[C@H](N5CCN(C(=O)[C@@H]6CCN(c7cc(F)c([C@H]8CCC(=O)NC8=O)c(F)c7)C6)CC5)CC4)nc3C(F)F)co2)ccn1` (stereo partly drawn) [Example 170, 2-(2-(sec-butyl)pyridin-4-yl)-N-(3-(difluoromethyl)-1-((1R,4r)-4-(4-((R)-1-(4-((R)-2,6-dioxopiperidin-3-yl)-3,5-difluorophenyl)pyrrolidine-3-carbonyl)piperazin-1-yl)cyclohexyl)-1H-pyrazol-4-yl)oxazole-4-carboxamide] are 96% and 6.8 nM.
Regarding `O=C1CC[C@H](c2c(F)cc(N3CC(C(=O)N4CCN(c5ccc(-n6cc(NC(=O)c7coc(-c8ccnc(NCC(F)(F)F)c8)n7)c(C(F)F)n6)cn5)CC4)C3)cc2F)C(=O)N1` [Example 29], the Dmax is 76% under setting [1] and 96% under setting [3]. Besides, the 50% degradation concentration (DC50) reads like this: under setting [2], 162 nM; under setting [4], 6.9 nM.
On to `O=C1CCN(c2c(F)cc(N3CC[C@H](C(=O)N4CCN([C@H]5CC[C@H](n6cc(NC(=O)c7cnn(-c8ccnc(NCC9CC9)c8)n7)c(C(F)F)n6)CC5)CC4)C3)cc2F)C(=O)N1` [Example 63, 2-(2-((cyclopropylmethyl)amino)pyridin-4-yl)-N-(3-(difluoromethyl)-1-((1S,4r)-4-(4-((S)-1-(4-(2,4-dioxotetrahydropyrimidin-1(2H)-yl)-3,5-difluorophenyl)pyrrolidine-3-carbonyl)piperazin-1-yl)cyclohexyl)-1H-pyrazol-4-yl)-2H-1,2,3-triazole-4-carboxamide], for which the Dmax under setting [3] was determined as 95%. Also, the 50% degradation concentration (DC50) under setting [4] worked out at 15 nM.
As to `O=C1CC[C@H](c2c(F)cc(CCN3CCN(C[C@H]4CC[C@H](n5cc(NC(=O)c6coc(-c7ccnc(NCC(F)(F)F)c7)n6)c(C(F)F)n5)CC4)CC3)cc2F)C(=O)N1` [Example 1, N-(3-(difluoromethyl)-1-((1R,4r)-4-((4-(4-((R)-2,6-dioxopiperidin-3-yl)-3,5-difluorophenethyl)piperazin-1-yl)methyl)cyclohexyl)-1H-pyrazol-4-yl)-2-(2-((2,2,2-trifluoroethyl)amino)pyridin-4-yl)oxazole-4-carboxamide], the half-maximal degradation concentration (DC50) is, setting by setting: under setting [5], greater than 10000 nM; under setting [4], greater than 10000 nM. For the same molecule, the Dmax by setting is: under setting [6], 46%; under setting [3], 46%.
With `N#Cc1cnn2c(C(=O)Nc3cc4cn([C@H]5CC[C@H](N6CCN(CCc7cc(F)c([C@H]8CCC(=O)NC8=O)c(F)c7)CC6)CC5)nc4c4c3OC(F)(F)O4)ccc2c1` [Example 386, 3-cyano-N-(2-((1R,4r)-4-(4-(4-((R)-2,6-dioxopiperidin-3-yl)-3,5-difluorophenethyl)piperazin-1-yl)cyclohexyl)-7,7-difluoro-2H-[1,3]dioxolo[4,5-g]indazol-5-yl)pyrrolo[1,2-b]pyridazine-7-carboxamide], the Dmax under setting [3] worked out at 94%. The 50% degradation concentration (DC50) under setting [4] is 3.2 nM.
In the same order, the values of `CC(C)(O)c1cc2nn(C3CCN([C@H]4CCN(CC5CN(c6cc(F)c([C@H]7CCC(=O)NC7=O)c(F)c6)C5)CC4(F)F)CC3)cc2cc1NC(=O)c1ccc2cc(C#N)cnn12` [Example 197, 3-cyano-N-(2-((S)-1′-((1-(4-((R)-2,6-dioxopiperidin-3-yl)-3,5-difluorophenyl)azetidin-3-yl)methyl)-3′,3′-difluoro-[1,4′-bipiperidin]-4-yl)-6-(2-hydroxypropan-2-yl)-2H-indazol-5-yl)pyrrolo[1,2-b]pyridazine-7-carboxamide] are 96% and 4.8 nM.
In the same order, the values of `COc1cc2nn(C3CCN(C4CCN(C(=O)[C@@H]5CCN(c6cc(F)c([C@H]7CCC(=O)NC7=O)c(F)c6)C5)CC4)CC3)cc2cc1NC(=O)c1cccc(C(F)(F)F)n1` [Example 43, N-(2-(1′-((R)-1-(4-((R)-2,6-dioxopiperidin-3-yl)-3,5-difluorophenyl)pyrrolidine-3-carbonyl)-[1,4′-bipiperidin]-4-yl)-6-methoxy-2H-indazol-5-yl)-6-(trifluoromethyl)picolinamide] are 95% and 7.7 nM.
`COc1cc2nn([C@H]3CC[C@H](CN4CCN(C(=O)[C@H]5CC[C@H](Oc6ccc(N7CCC(=O)NC7=O)cc6)CC5)CC4)CC3)cc2cc1NC(=O)c1cccc(C(F)(F)F)n1` [Example 6, N-(2-((1R,4r)-4-((4-((1r,4R)-4-(4-(2,4-dioxotetrahydropyrimidin-1(2H)-yl)phenoxy)cyclohexane-1-carbonyl)piperazin-1-yl)methyl)cyclohexyl)-6-methoxy-2H-indazol-5-yl)-6-(trifluoromethyl)picolinamide]: the DC50 is, setting by setting: under setting [5], greater than 10000 nM; under setting [4], greater than 10000 nM. For the same molecule, the Dmax is, setting by setting: under setting [6], 11%; under setting [3], 11%.

(Values after patent US20250195513A1, “DEGRADATION OF IRAK4 BY CONJUGATION OF IRAK4 INHIBITORS WITH E3 LIGASE LIGAND AND METHODS OF USE” (BeiGene, Ltd., priority 2022, published 2025).)
